Results reported in ChEMBL document CHEMBL1141314, “SAR index: quantifying the nature of structure-activity relationships” (J Med Chem, 2007).

Test: Inhibition of ribonuclease A

Compound	Ki [µM]
Nc1ncnc2c1ncn2[C@@H]1O[C@H](COP(=O)(O)OP(=O)(O)OC2CC(n3ccc(=O)[nH]c3=O)OC2CO)[C@@H](O)[C@H]1O (some centres not stated)	11.3
Nc1ncnc2c1ncn2[C@@H]1O[C@H](COP(=O)(O)OP(=O)(O)O[C@H]2C[C@H](n3ccc(=O)[nH]c3=O)O[C@@H]2COP(=O)(O)O)[C@@H](OP(=O)(O)O)[C@H]1O	0.027
